Among the data in BindingDB's records for doi:10.1016/s0960-894x(99)00004-9 (Smithkline Beecham Pharmaceuticals, 1999) are IC50 values, retold here.

A short description of assay [1]: Inhibitory activity against Varicella Zoster Virus (VZV) protease was determined using quenched fluorescence assay.
The nature of assay [2]: Inhibitory activity against cytomegalovirus (CMV) protease was determined using quenched fluorescence assay.

Regarding `Cc1cc(/C=C/C(=O)N[C@@H](C)c2nc3scc(C)c3c(=O)o2)c(C)s1` [(E)-3-(2,5-Dimethyl-thiophen-3-yl)-N-[(S)-1-(5-methyl-4-oxo-4H-thieno[2,3-d][1,3]oxazin-2-yl)-ethyl]-acrylamide], the values for the IC50 in assay [1] and in assay [2] were 7 nM and 230 nM, respectively.

As for `Cc1csc2nc([C@H](C)NC(=O)/C=C/c3c(Cl)cccc3Cl)oc(=O)c12` [(E)-3-(2,6-Dichloro-phenyl)-N-[(S)-1-(5-methyl-4-oxo-4H-thieno[2,3-d][1,3]oxazin-2-yl)-ethyl]-acrylamide], the results for the IC50 in assay [1] and in assay [2] were 10 nM and > 34000 nM, respectively.

`Cc1csc2nc([C@H](C)NC(=O)/C=C/c3c(F)cccc3F)oc(=O)c12` [(E)-3-(2,6-Difluoro-phenyl)-N-[(S)-1-(5-methyl-4-oxo-4H-thieno[2,3-d][1,3]oxazin-2-yl)-ethyl]-acrylamide]: the IC50 (commonly the midpoint of a concentration-inhibition curve) amounted to 60 nM in assay [1] and 1700 nM in assay [2].

In the case of `COc1cccc(OC)c1/C=C/C(=O)N[C@@H](C)c1nc2scc(C)c2c(=O)o1` [(E)-3-(2,6-Dimethoxy-phenyl)-N-[(S)-1-(5-methyl-4-oxo-4H-thieno[2,3-d][1,3]oxazin-2-yl)-ethyl]-acrylamide], the figures for the IC50 in assay [1] and in assay [2] were 180 nM and 21000 nM, respectively.

As to `Cc1csc2nc([C@H](C)NC(=O)/C=C/c3ccccc3Br)oc(=O)c12` [(E)-3-(2-Bromo-phenyl)-N-[(S)-1-(5-methyl-4-oxo-4H-thieno[2,3-d][1,3]oxazin-2-yl)-ethyl]-acrylamide], the IC50 was found to be 39 nM in assay [1] and 380 nM in assay [2].

For the compound `Cc1csc2nc([C@H](C)NC(=O)/C=C/c3ccsc3Br)oc(=O)c12` [(E)-3-(2-Bromo-thiophen-3-yl)-N-[(S)-1-(5-methyl-4-oxo-4H-thieno[2,3-d][1,3]oxazin-2-yl)-ethyl]-acrylamide], the IC50 turned out to be 51 nM in assay [1] and 620 nM in assay [2].

The compound `Cc1csc2nc([C@H](C)NC(=O)/C=C/c3ccc(O)cc3Cl)oc(=O)c12` [(E)-3-(2-Chloro-4-hydroxy-phenyl)-N-[(S)-1-(5-methyl-4-oxo-4H-thieno[2,3-d][1,3]oxazin-2-yl)-ethyl]-acrylamide] registered an IC50 in assay [1] of 15 nM.

In the case of `Cc1csc2nc([C@H](C)NC(=O)/C=C/c3c(F)cccc3Cl)oc(=O)c12` [(E)-3-(2-Chloro-6-fluoro-phenyl)-N-[(S)-1-(5-methyl-4-oxo-4H-thieno[2,3-d][1,3]oxazin-2-yl)-ethyl]-acrylamide], the half-inhibitory concentration (IC50) came to 36 nM in assay [1] and 2000 nM in assay [2].

Turning to `Cc1csc2nc([C@H](C)NC(=O)/C=C/c3ccccc3Cl)oc(=O)c12` [(E)-3-(2-Chloro-phenyl)-N-[(S)-1-(5-methyl-4-oxo-4H-thieno[2,3-d][1,3]oxazin-2-yl)-ethyl]-acrylamide], the IC50 in assay [1] stood at 35 nM; in assay [2] it was 380 nM.

For the compound `CCOc1ccccc1/C=C/C(=O)N[C@@H](C)c1nc2scc(C)c2c(=O)o1` [(E)-3-(2-Ethoxy-phenyl)-N-[(S)-1-(5-methyl-4-oxo-4H-thieno[2,3-d][1,3]oxazin-2-yl)-ethyl]-acrylamide], the IC50 in assay [1] worked out at 15 nM; in assay [2], 510 nM.

For `COc1cc(/C=C/C(=O)N[C@@H](C)c2nc3scc(C)c3c(=O)o2)cc(OC)c1` [(E)-3-(3,5-Dimethoxy-phenyl)-N-[(S)-1-(5-methyl-4-oxo-4H-thieno[2,3-d][1,3]oxazin-2-yl)-ethyl]-acrylamide], the IC50 in assay [1] is 21 nM; in assay [2], 8500 nM.

As for `Cc1csc2nc([C@H](C)NC(=O)/C=C/c3sccc3Br)oc(=O)c12` [(E)-3-(3-Bromo-thiophen-2-yl)-N-[(S)-1-(5-methyl-4-oxo-4H-thieno[2,3-d][1,3]oxazin-2-yl)-ethyl]-acrylamide], the IC50 in assay [1] worked out at 58 nM; in assay [2], 1110 nM.

In assay [1], `Cc1csc2nc([C@H](C)NC(=O)/C=C/c3cccc(Cl)c3)oc(=O)c12` [(E)-3-(3-Chloro-phenyl)-N-[(S)-1-(5-methyl-4-oxo-4H-thieno[2,3-d][1,3]oxazin-2-yl)-ethyl]-acrylamide] had an IC50 of 42 nM.

Take `Cc1csc2nc([C@H](C)NC(=O)/C=C/c3cc(Br)cs3)oc(=O)c12` [(E)-3-(4-Bromo-thiophen-2-yl)-N-[(S)-1-(5-methyl-4-oxo-4H-thieno[2,3-d][1,3]oxazin-2-yl)-ethyl]-acrylamide]: the IC50 in assay [1] was found to be 33 nM; in assay [2], 1120 nM.

With `Cc1csc2nc([C@H](C)NC(=O)/C=C/c3ccc(N(C)C)cc3)oc(=O)c12` [(E)-3-(4-Dimethylamino-phenyl)-N-[(S)-1-(5-methyl-4-oxo-4H-thieno[2,3-d][1,3]oxazin-2-yl)-ethyl]-acrylamide], the half-inhibitory concentration (IC50) was determined as 38 nM in assay [1] and 1800 nM in assay [2].

With `Cc1csc2nc([C@H](C)NC(=O)/C=C/c3ccc(C=O)cc3)oc(=O)c12` [(E)-3-(4-Formyl-phenyl)-N-[(S)-1-(5-methyl-4-oxo-4H-thieno[2,3-d][1,3]oxazin-2-yl)-ethyl]-acrylamide], the results for the IC50 in assay [1] and in assay [2] were 94 nM and 2400 nM, respectively.

With `Cc1csc2nc([C@H](C)NC(=O)/C=C/c3ccc(Br)o3)oc(=O)c12` [(E)-3-(5-Bromo-furan-2-yl)-N-[(S)-1-(5-methyl-4-oxo-4H-thieno[2,3-d][1,3]oxazin-2-yl)-ethyl]-acrylamide], the IC50 in assay [1] turned out to be 41 nM; in assay [2] it was 180 nM.

As for `Cc1csc2nc([C@H](C)NC(=O)/C=C/c3ccc(Br)s3)oc(=O)c12` [(E)-3-(5-Bromo-thiophen-2-yl)-N-[(S)-1-(5-methyl-4-oxo-4H-thieno[2,3-d][1,3]oxazin-2-yl)-ethyl]-acrylamide], the IC50 in assay [1] is 8 nM; in assay [2], 210 nM.

For `Cc1csc2nc([C@H](C)NC(=O)/C=C/c3ccc(Cl)s3)oc(=O)c12` [(E)-3-(5-Chloro-thiophen-2-yl)-N-[(S)-1-(5-methyl-4-oxo-4H-thieno[2,3-d][1,3]oxazin-2-yl)-ethyl]-acrylamide], the IC50 is 17 nM in assay [1] and 280 nM in assay [2].

For the compound `Cc1csc2nc([C@H](C)NC(=O)/C=C/c3cccn3C)oc(=O)c12` [(E)-N-[(S)-1-(5-Methyl-4-oxo-4H-thieno[2,3-d][1,3]oxazin-2-yl)-ethyl]-3-(1-methyl-1H-pyrrol-2-yl)-acrylamide], the half-maximal inhibitory concentration (IC50) in assay [1] is 29 nM; in assay [2], 220 nM.

As for `Cc1csc2nc([C@H](C)NC(=O)/C=C/c3ccccc3[N+](=O)[O-])oc(=O)c12` [(E)-N-[(S)-1-(5-Methyl-4-oxo-4H-thieno[2,3-d][1,3]oxazin-2-yl)-ethyl]-3-(2-nitro-phenyl)-acrylamide], the results for the IC50 in assay [1] and in assay [2] were 76 nM and 2200 nM, respectively.

As for `Cc1ccsc1/C=C/C(=O)N[C@@H](C)c1nc2scc(C)c2c(=O)o1` [(E)-N-[(S)-1-(5-Methyl-4-oxo-4H-thieno[2,3-d][1,3]oxazin-2-yl)-ethyl]-3-(3-methyl-thiophen-2-yl)-acrylamide], the results for the IC50 in assay [1] and in assay [2] were 290 nM and 670 nM, respectively.

In the case of `Cc1csc2nc([C@H](C)NC(=O)/C=C/c3ccc([N+](=O)[O-])cc3)oc(=O)c12` [(E)-N-[(S)-1-(5-Methyl-4-oxo-4H-thieno[2,3-d][1,3]oxazin-2-yl)-ethyl]-3-(4-nitro-phenyl)-acrylamide], the IC50 stood at 60 nM in assay [1] and 3600 nM in assay [2].

In the case of `Cc1ccc(/C=C/C(=O)N[C@@H](C)c2nc3scc(C)c3c(=O)o2)s1` [(E)-N-[(S)-1-(5-Methyl-4-oxo-4H-thieno[2,3-d][1,3]oxazin-2-yl)-ethyl]-3-(5-methyl-thiophen-2-yl)-acrylamide], the IC50 was determined as 33 nM in assay [1] and 580 nM in assay [2].

On to `Cc1csc2nc([C@H](C)NC(=O)/C=C/c3ccc([N+](=O)[O-])s3)oc(=O)c12` [(E)-N-[(S)-1-(5-Methyl-4-oxo-4H-thieno[2,3-d][1,3]oxazin-2-yl)-ethyl]-3-(5-nitro-thiophen-2-yl)-acrylamide], for which the IC50 was found to be 54 nM in assay [1] and 900 nM in assay [2].

For the compound `Cc1ccccc1/C=C/C(=O)N[C@@H](C)c1nc2scc(C)c2c(=O)o1` [(E)-N-[(S)-1-(5-Methyl-4-oxo-4H-thieno[2,3-d][1,3]oxazin-2-yl)-ethyl]-3-o-tolyl-acrylamide], the IC50 in assay [1] was determined as 36 nM.

Turning to `Cc1csc2nc([C@H](C)NC(=O)/C=C(\c3ccccc3)c3cccs3)oc(=O)c12` [(E)-N-[(S)-1-(5-Methyl-4-oxo-4H-thieno[2,3-d][1,3]oxazin-2-yl)-ethyl]-3-phenyl-3-thiophen-2-yl-acrylamide], the figures for the half-inhibitory concentration (IC50) in assay [1] and in assay [2] were 16 nM and 300 nM, respectively.

Take `Cc1csc2nc([C@H](C)NC(=O)/C=C/c3ccccc3)oc(=O)c12` [(E)-N-[(S)-1-(5-Methyl-4-oxo-4H-thieno[2,3-d][1,3]oxazin-2-yl)-ethyl]-3-phenyl-acrylamide]: the IC50 in assay [1] stood at 38 nM; in assay [2], 500 nM.

For `Cc1csc2nc([C@H](C)NC(=O)/C=C/c3ccccn3)oc(=O)c12` [(E)-N-[(S)-1-(5-Methyl-4-oxo-4H-thieno[2,3-d][1,3]oxazin-2-yl)-ethyl]-3-pyridin-2-yl-acrylamide], the IC50 is 170 nM in assay [1] and 1240 nM in assay [2].

As to `Cc1csc2nc([C@H](C)NC(=O)/C=C/c3ccnc4ccccc34)oc(=O)c12` [(E)-N-[(S)-1-(5-Methyl-4-oxo-4H-thieno[2,3-d][1,3]oxazin-2-yl)-ethyl]-3-quinolin-4-yl-acrylamide], the IC50 was determined as 19 nM in assay [1] and 1100 nM in assay [2].

For the compound `Cc1csc2nc([C@H](C)NC(=O)/C=C/c3ccsc3)oc(=O)c12` [(E)-N-[(S)-1-(5-Methyl-4-oxo-4H-thieno[2,3-d][1,3]oxazin-2-yl)-ethyl]-3-thiophen-3-yl-acrylamide], the IC50 in assay [1] came out at 89 nM.

As to `Cc1csc2nc([C@H](C)NC(=O)C=C(c3cccs3)c3cccs3)oc(=O)c12` [N-[(S)-1-(5-Methyl-4-oxo-4H-thieno[2,3-d][1,3]oxazin-2-yl)-ethyl]-3,3-di-thiophen-2-yl-acrylamide], the results for the IC50 in assay [1] and in assay [2] were 42 nM and 250 nM, respectively.

With `Cc1csc2nc([C@H](C)NC(=O)C=C(c3ccccc3)c3ccccc3)oc(=O)c12` [N-[(S)-1-(5-Methyl-4-oxo-4H-thieno[2,3-d][1,3]oxazin-2-yl)-ethyl]-3,3-diphenyl-acrylamide], the figures for the IC50 in assay [1] and in assay [2] were 37 nM and 910 nM, respectively.
